The values that follow come from US5847159A, “1-[ω-(3,4-dihydro-2-naphthalenyl)alkyl]-cyclic amine derivatives, process for preparing the same, and pharmaceutical composition containing the same” (priority 1995, dated 1998).

Structures can show the parent of a compound that is named as a salt.

The assay relates to rhythmic bladder contractions (micturition reflex). Nature of the assay: Inhibitory effect on rhythmic bladder contractions (micturition reflex). It counts as in vivo, Female Std-Wistar rats. Particulars: i.d., rat; for inhibition in vivo at 10 mg/kg / inhibition in vivo at 30 mg/kg: intraduodenal, mean over two hours, read-out: Inhibitory rate on contractile frequency; for inhibition in vivo at 10 mg/kg / ED50 / inhibition in vivo at 30 mg/kg: 2 h; for ED50: two hours, read-out: ED50, inhibitory effect on contractile frequency; for Potency on frequency of rhythmic bladder contractions relative to inaperisone hydrochloride (Compound A): compared with Compound A. As to the method:
Inhibitory effect on rhythmic bladder contractions (micturition reflex)
The experiment was carried out according to the method of Maggi, C. […] It is generally accepted that the rhythmic bladder contractions evoked by instillation of saline solution into the bladder are mediated via the micturition reflex pathway like that of natural urination.
Female Std-Wistar rats weighing 160-190 g were used in groups of 3-4 animals. Under urethane anesthesia (1 g/kg, s.c.), both ureters were tied and cut at the side of kidney after a mid line incision of the abdomen. A cannula, connected to a syringe and a pressure transducer, was inserted into the bladder via the external urethral orifice and ligated around the proximal urethra. The animal was allowed to stay for about 30 minutes after the operation. The bladder was slowly filled with warm saline solution (0.4-1 ml) by means of a syringe until rhythmic contractions were induced. The change of the intravesical pressure was recorded on a recorder via a pressure transducer. After the rhythmic contractions became constant, test compounds dissolved or suspended in 0.5% aqueous tragacanth solution were administered via the cannula inserted for intraduodenal administration. The effect of each compound on the contractile frequency was investigated every 15 minutes till two hours after the administration.
The inhibitory rate on the contractile frequency (two hours) was expressed as the mean value of the inhibitory rates at an every 15-minute interval for two hours after the administration, which was determined based on the contractile frequency for 15 minutes before the administration.

With `OC1CCN(CCC2=Cc3ccccc3CC2)C1` (centres unmarked) [Ex. 60, 1-[2-(3,4-Dihydro-2-naphthalenyl)ethyl]-3-hydroxypyrrolidine hydrochloride], the inhibition in vivo at 10 mg/kg is 33%.

As to `C1=C(CCCCN2CCCC2)CCc2ccccc21` [Ex. 4], the ED50 turned out to be 11.4 mg/kg, the “Effect on the amplitude of contraction” value was “suppressed the amplitude of contraction” and the “Potency on frequency of rhythmic bladder contractions relative to inaperisone hydrochloride (Compound A)” value is on record as approximately 3 times more potent.

As for `Fc1cccc2c1CCC(CCN1CCCCC1)=C2` [Ex. 8], the inhibition in vivo at 30 mg/kg was 62%.

Consider `Fc1ccc2c(c1)C=C(CCN1CCCC1)CC2` [Ex. 12], for which the “Effect on the amplitude of contraction” value is recorded as “suppressed the amplitude of contraction” and the inhibition in vivo at 10 mg/kg is 35%.

As to `COc1cc2c(cc1OC)CCC(CCN1CCCC1)=C2` [Ex. 62, 1-[2-(3,4-dihydro-6,7-dimethoxy-2-naphthalenyl)ethyl]-pyrrolidine], the ED50 came to 6.1 mg/kg, the “Effect on the amplitude of contraction” value was “suppressed the amplitude of contraction” and the “Potency on frequency of rhythmic bladder contractions relative to inaperisone hydrochloride (Compound A)” value is given as “approximately 5.7 times more potent”.

For `Cc1cc2c(cc1C(=O)O)CCC(CCN1CCCC1)=C2` [Ex. 74, 1-[2-(6-carboxy-3,4-dihydro-7-methyl-2-naphthalenyl)-ethyl]pyrrolidine], the inhibition in vivo at 10 mg/kg is 42%.

Consider `Fc1cccc2c1CCC(CCN1CCCCCC1)=C2` [Ex. 9], for which the inhibition in vivo at 10 mg/kg was determined as 47%.

For `C1=C(CCCCN2CCCCC2)CCc2ccccc21` [Ex. 6], the inhibition in vivo at 10 mg/kg came out at 42%.

In the case of `C1=C(CCCN2CCCCC2)CCc2ccccc21` [Ex. 3], the “Effect on the amplitude of contraction” value was “suppressed the amplitude of contraction” and the inhibition in vivo at 10 mg/kg stood at 38%.

With `CCc1cc2c(cc1CC)CCC(CCN1CCCC1)=C2` [Ex. 46, 1-[2-(6,7-diethyl-3,4-dihydro-2-naphthalenyl)ethyl]pyrrolidine], the ED50 is 12.4 mg/kg.

Take `Cc1cccc2c1CCC(CCN1CCCCC1)=C2` [Ex. 18]: the inhibition in vivo at 30 mg/kg came to 51%.

As for `COC(=O)c1ccc2c(c1)C=C(CCN1CCCC1)CC2` [Ex. 56, 1-[2-(3,4-Dihydro-7-methoxycarbonyl-2-naphthalenyl)ethyl]pyrrolidine], the “Effect on the amplitude of contraction” value is given as “suppressed the amplitude of contraction” and the inhibition in vivo at 10 mg/kg came out at 34%.

In the case of `Cc1cc2c(cc1CO)CCC(CCN1CCCC1)=C2` [Ex. 72, 1-[2-(3,4-dihydro-6-hydroxymethyl-7-methyl-2-naphthalenyl)ethyl]pyrrolidin], the “Effect on the amplitude of contraction” value was “suppressed the amplitude of contraction” and the inhibition in vivo at 10 mg/kg was found to be 49%.

In the case of `C1=C(CCN2CCCC2)CCc2cc3c(cc21)CCC3` [Ex. 47], the inhibition in vivo at 10 mg/kg is 37%.

`Cc1cc2c(cc1C)CCC(CCN1CCCCCCC1)=C2` [Ex. 45]: the inhibition in vivo at 10 mg/kg was found to be 48%.

For the compound `Cc1cc2c(cc1C)CCC(CCN1C(C)CCC1C)=C2` (centres unmarked) [Ex. 50, 1-[2-(3,4-dihydro-6,7-dimethyl-2-naphthalenyl)ethyl]-2,5-dimethylpyrolidin], the “Effect on the amplitude of contraction” value is listed as “suppressed the amplitude of contraction” and the inhibition in vivo at 10 mg/kg turned out to be 50%.

For the compound `Cc1cc2c(cc1C)CCC(CCN1CCCCCC1)=C2` [Ex. 44], the inhibition in vivo at 10 mg/kg was 34%.

With `Fc1ccc2c(c1)CCC(CCN1CCCC1)=C2` [Ex. 10], the inhibition in vivo at 10 mg/kg was 33%.

Consider `Clc1ccc2c(c1)C=C(CCN1CCCC1)CC2` [Ex. 15], for which the inhibition in vivo at 10 mg/kg came to 44%.

With `Fc1cccc2c1CCC(CCN1CCC(F)C1)=C2` (centres unmarked) [Ex. 53], the inhibition in vivo at 10 mg/kg was 35%.

As to `Fc1ccc2c(c1F)CCC(CCN1CCCC1)=C2` [Ex. 54], the inhibition in vivo at 10 mg/kg amounted to 43%.

For the compound `Fc1cc(F)c2c(c1)C=C(CCN1CCCC1)CC2` [Ex. 52, 1-[2-(5,7-difluoro-3,4-dihydro-2-naphthalenyl)ethyl]-pyrrolidine], the inhibition in vivo at 10 mg/kg is 52%.

In the case of `COc1cccc2c1CCC(CCCCCN1CCCCC1)=C2` [Ex. 32], the inhibition in vivo at 10 mg/kg was found to be 47%.

Consider `C1=C(CCN2CCCC2)CCc2cc3c(cc21)OCO3` [Ex. 49], for which the “Effect on the amplitude of contraction” value was “suppressed the amplitude of contraction” and the inhibition in vivo at 10 mg/kg stood at 46%.

Consider `Cc1cc2c(cc1C)CCC(CCN1CCC(O)C1)=C2` (centres unmarked) [Ex. 66], for which the inhibition in vivo at 10 mg/kg is 34%.

`COc1cc2c(cc1C)CCC(CCN1CCCC1)=C2` [Ex. 68, 1-[2-(3,4-dihydro-7-methoxy-6-methyl-2-naphthalenyl)ethyl]pyrrolidine]: the ED50 turned out to be 7.4 mg/kg, the “Effect on the amplitude of contraction” value is “suppressed the amplitude of contraction” and the “Potency on frequency of rhythmic bladder contractions relative to inaperisone hydrochloride (Compound A)” value was approximately 4.7 times more potent.

`COc1cccc2c1CCC(CCN1CCCCC1)=C2` [Ex. 26]: the 50% effective dose (ED50) turned out to be 29.1 mg/kg and the “Effect on the amplitude of contraction” value was “suppressed the amplitude of contraction”.

`Fc1ccc(F)c2c1C=C(CCN1CCCC1)CC2` [Ex. 55]: the inhibition in vivo at 10 mg/kg is 43%.

Consider `Clc1cccc2c1CCC(CCN1CCCC1)=C2` [Ex. 14], for which the inhibition in vivo at 10 mg/kg was determined as 49%.

Consider `Cc1cc2c(cc1C)CCC(CCN1CCC1)=C2` [Ex. 41], for which the “Effect on the amplitude of contraction” value is given as “suppressed the amplitude of contraction” and the inhibition in vivo at 10 mg/kg is 38%.

In the case of `Fc1ccc2c(c1)C=C(CCN1CCCCC1)CC2` [Ex. 13], the inhibition in vivo at 30 mg/kg amounted to 77%.

In the case of `COc1ccc2c(c1)C=C(CCN1CCCC1)CC2` [Ex. 58, 1-[2-(3,4-dihydro-7-methoxy-2-naphthalenyl)ethyl]-pyrrolidine], the inhibition in vivo at 10 mg/kg amounted to 34%.

`Fc1cc2c(cc1F)CCC(CCN1CCCC1)=C2` [Ex. 36, 1-[2-(6,7-difluoro-3,4-dihydro-2-naphthalenyl)ethyl]pyrrolidine]: the 50% effective dose (ED50) was determined as 12.9 mg/kg, the “Effect on the amplitude of contraction” value is “suppressed the amplitude of contraction” and the “Potency on frequency of rhythmic bladder contractions relative to inaperisone hydrochloride (Compound A)” value is listed as approximately 3 times more potent.

For `Fc1ccc2c(c1)CCC(CCN1CCCCC1)=C2` [Ex. 11], the inhibition in vivo at 30 mg/kg was found to be 60%.

For `COc1ccc2c(c1)C=C(CCN1CCCCC1)CC2` [Ex. 34], the inhibition in vivo at 30 mg/kg was 65%.

In the case of `Cc1ccc2c(c1)C=C(CCN1CCCC1)CC2` [Ex. 20], the “Effect on the amplitude of contraction” value is “suppressed the amplitude of contraction” and the inhibition in vivo at 30 mg/kg came to 67%.
